Like-named read-outs stand apart in the source and are kept apart here.
Columns and labels:
[1] = system: 12-lipoxygenase (human platelet 12-HETE formation); experiment: Human platelet 12-HETE formation from [14C]-arachidonic acid, TLC; assay type: cell-based; conditions: CLA mix 3 and 10 μM; 9,11-18:2 30 and 60 μM; 10,12-18:2 3 and 10 μM; with ionophore A23187
Procedure: Human platelets were isolated from donors according to previously established procedures (13) and resuspended in Krebs-Henseleit buffer (pH 7.4) at a concentration of 3×10^8 platelets/ml. The platelets (0.5 ml) were placed in a 37° C. water bath for several minutes and then treated with either vehicle (ethanol) or various concentrations of the fatty acid to be tested for 2 min. Next, 10 μM (final concentration) [^14 C]-arachidonic acid was added. In some experiments, 20 μM calcium ionophore A23187 was added about 5 sec. prior to the addition of the arachidonic acid substrate. […] Product separation and analysis by thin layer chromatography (TLC) was carried out as previously described using unlabeled arachidonic acid, 15-HETE and thromboxane B2 as standards (11). The various radioactive product and unreacted substrate bands were visualized by autoradiography and quantitated either by scraping the bands from the TLC plate and counting the samples in a liquid scintillation counter or by determining the relative band intensities using a Personal Densitometer SI (Molecular Dynamics, Sunnyvale, Calif.) with ImageQuaNT v4.2 software). To obtain the results shown in FIG. 2, the human platelets were pretreated with the various concentrations of CLA isomers followed by the addition of calcium ionophore A23187 and [^14 C]-arachidonic acid. […]

[2] = system: human platelet thromboxane production (cyclooxygenase pathway); experiment: Human platelet thromboxane (TXB2) formation from [14C]-arachidonic acid, TLC; assay type: cell-based; conditions: for TXB2 formation (FIG. 2): CLA mix 3 and 10 μM, 9,11-18:2 30 and 60 μM, 10,12-18:2 3 and 10 μM, with ionophore A23187; for inhibitory effectiveness on platelet TXB2 formation, CLA mix and pure isomers compared: CLA mix vs pure 9,11- and 10,12-18:2; for IC50: Platelet, read-out: Inhibitory Potency (I50); for potency as thromboxane inhibitor relative to non-hydroxylated parent: 13-HODE vs 9,11-18:2
Procedure: Human platelets were isolated from donors according to previously established procedures (13) and resuspended in Krebs-Henseleit buffer (pH 7.4) at a concentration of 3×10^8 platelets/ml. The platelets (0.5 ml) were placed in a 37° C. water bath for several minutes and then treated with either vehicle (ethanol) or various concentrations of the fatty acid to be tested for 2 min. Next, 10 μM (final concentration) [^14 C]-arachidonic acid was added. In some experiments, 20 μM calcium ionophore A23187 was added about 5 sec. prior to the addition of the arachidonic acid substrate. Ten minutes after the addition of arachidonic acid, the reaction was terminated with 10% formic acid and the products extracted with chloroform-methanol. Product separation and analysis by thin layer chromatography (TLC) was carried out as previously described using unlabeled arachidonic acid, 15-HETE and thromboxane B2 as standards (11). The various radioactive product and unreacted substrate bands were visualized by autoradiography and quantitated either by scraping the bands from the TLC plate and counting the samples in a liquid scintillation counter or by determining the relative band intensities using a Personal Densitometer SI (Molecular Dynamics, Sunnyvale, Calif.) with ImageQuaNT v4.2 software).
To obtain the results shown in FIG. 2, the human platelets were pretreated with the various concentrations of CLA isomers followed by the addition of calcium ionophore A23187 and [^14 C]-arachidonic acid. Products were isolated, separated by thin layer chromatography as described above. […] The identities of the bands in decreasing order of Rf are as follows: AA-unreacted arachidonic acid, 12-HETE-12-hydroxyeicosatetraenoic acid (a platelet 12-lipoxygenase metabolite), HHT-12-hydroxyheptadecatrienoic acid, TXB2 -thromboxane B2, the latter two products are cyclooxygenase metabolites, origin-sample application point.
The data shown were obtained by determining the effects of various concentrations of CLA isomers on platelet thromboxane B2 production. […] [^14 C]-thromboxane B2 production by fatty acid-treated platelets relative to vehicle-treated platelets was determined and expressed as % control. Symbols used for various fatty acids: ΔΔ, CLA mix .box-solid.-.box-solid., 10,12-18:2, .smallcircle.-.smallcircle., 9,11-18:2, *-*, 13-HODE, .gradient.-.gradient., 9-HODE.

[3] = human platelets, exogenous arachidonic acid, calcium ionophore A23187, mean ± S.E.M., 6-11 donors

| SMILES | IC50 [2, 3] [µM] | 12-HETE production (FIG. 2) [1] | TXB2 formation (FIG. 2) [2] | inhibitory effectiveness on platelet TXB2 formation, CLA mix and pure isomers compared [2] | decrease of inhibitory effectiveness relative to 10,12-18:2 ([2]; 9-HODE vs 10,12-18:2) | potency as thromboxane inhibitor relative to non-hydroxylated parent ([2]; 9-HODE vs 10,12-18:2) | enhancement of inhibitory potency relative to the non-hydroxylated analog ([2]; 13-HODE vs 9,11 isomer) | IC50 ([2]; Homo sapiens) [µM] |
| --- | --- | --- | --- | --- | --- | --- | --- | --- |
| CCCCC/C=C\C=C\C(O)CCCCCCCC(=O)O (stereo not drawn) [9-HODE] | 34 ± 6.5 | – | – | – | more than two | less potent than the corresponding non-hydroxylated parent 10,12-18:2 | – | – |
| CCCCC[C@H](O)/C=C/C=C\CCCCCCCC(=O)O [13-HODE] | 3 ± 0.7 | – | – | – | – | more potent as a thromboxane inhibitor than the parent 9,11-18:2 | about five | – |
| CCCCCCCC/C=C\CCCCCCCC(=O)O [Oleic acid] | – | – | – | – | – | – | – | > 60 |

Further lines, with some results ahead:

| IC50 [2, 3] [µM] | SMILES | 12-HETE production (FIG. 2) [1] | TXB2 formation (FIG. 2) [2] | inhibitory effectiveness on platelet TXB2 formation, CLA mix and pure isomers compared [2] | decrease of inhibitory effectiveness relative to 10,12-18:2 ([2]; 9-HODE vs 10,12-18:2) | potency as thromboxane inhibitor relative to non-hydroxylated parent ([2]; 9-HODE vs 10,12-18:2) | enhancement of inhibitory potency relative to the non-hydroxylated analog ([2]; 13-HODE vs 9,11 isomer) | IC50 ([2]; Homo sapiens) [µM] |
| --- | --- | --- | --- | --- | --- | --- | --- | --- |
| 16 ± 1.8 | CCCCCC/C=C/C=C\CCCCCCCC(=O)O [9,11-18:2, 9,11-octadecadienoic acid] | no effect on the 12-HETE production | TXB2 was inhibited | approximately the same | – | – | – | – |
| 13 ± 4.1 | CCCCC/C=C\C=C\CCCCCCCCC(=O)O [10,12-18:2, 10,12-octadecadienoic acid] | no effect on the 12-HETE production | TXB2 was inhibited | approximately the same | – | – | – | – |
